From PubChem BioAssay (NCI)
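Assay format: 96-well plates, 48-hour exposure. Abbreviation: GI50, concentration required for 50% inhibition of growth. TGI: concentration producing complete growth inhibition.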

Columns and labels:
Assay in all cases: growth of human tumour cells (NCI), 48 h
SK-MEL-2 melanoma = tested on: SK-MEL-2 melanoma
A498 renal = tested on: A498 renal
MOLT-4 leukemia = tested on: MOLT-4 leukemia
RXF 393 renal = tested on: RXF 393 renal
SNB-75 CNS = tested on: SNB-75 CNS
RPMI-8226 leukemia = tested on: RPMI-8226 leukemia
UACC-257 melanoma = tested on: UACC-257 melanoma
786-0 renal = tested on: 786-0 renal
SK-OV-3 ovarian = tested on: SK-OV-3 ovarian
NCI-H23 lung = tested on: NCI-H23 lung
UACC-62 melanoma = tested on: UACC-62 melanoma
SK-MEL-28 melanoma = tested on: SK-MEL-28 melanoma
LOX IMVI melanoma = tested on: LOX IMVI melanoma
MCF7 breast = tested on: MCF7 breast
PC-3 prostate = tested on: PC-3 prostate
CCRF-CEM leukemia = tested on: CCRF-CEM leukemia
NCI/ADR-RES ovarian = tested on: NCI/ADR-RES ovarian
HT29 colon = tested on: HT29 colon
DU-145 prostate = tested on: DU-145 prostate
OVCAR-4 ovarian = tested on: OVCAR-4 ovarian
NCI-H226 lung = tested on: NCI-H226 lung
NCI-H460 lung = tested on: NCI-H460 lung
UO-31 renal = tested on: UO-31 renal
HS 578T breast = tested on: HS 578T breast
EKVX NSCLC = tested on: EKVX NSCLC
NCI-H522 lung = tested on: NCI-H522 lung
HCT-116 colon = tested on: HCT-116 colon
BT-549 breast = tested on: BT-549 breast
SF-295 CNS = tested on: SF-295 CNS
KM12 colon = tested on: KM12 colon
COLO 205 colon = tested on: COLO 205 colon
HCC-2998 colon = tested on: HCC-2998 colon
TK-10 renal = tested on: TK-10 renal
HCT-15 colon = tested on: HCT-15 colon
K-562 leukemia = tested on: K-562 leukemia
HL-60(TB) leukemia = tested on: HL-60(TB) leukemia
SF-539 CNS = tested on: SF-539 CNS
IGROV1 ovarian = tested on: IGROV1 ovarian
SW-620 colon = tested on: SW-620 colon
OVCAR-5 ovarian = tested on: OVCAR-5 ovarian
U251 CNS = tested on: U251 CNS
ACHN renal = tested on: ACHN renal
A549 NSCLC = tested on: A549 NSCLC
SK-MEL-5 melanoma = tested on: SK-MEL-5 melanoma
SNB-19 CNS = tested on: SNB-19 CNS
SF-268 CNS = tested on: SF-268 CNS
T-47D breast = tested on: T-47D breast
CAKI-1 renal = tested on: CAKI-1 renal
MDA-MB-435 = tested on: MDA-MB-435
HOP-92 NSCLC = tested on: HOP-92 NSCLC
SR leukemia = tested on: SR leukemia
OVCAR-3 ovarian = tested on: OVCAR-3 ovarian
MALME-3M melanoma = tested on: MALME-3M melanoma
HOP-62 NSCLC = tested on: HOP-62 NSCLC

Work on `N#Cc1ccsc1NC(=O)COC(=O)c1cccc(S(=O)(=O)N2CCc3ccccc32)c1` yielded a GI50 (SK-MEL-2 melanoma) of over 100 µM, a TGI (SK-MEL-2 melanoma) of over 100 µM and a GI50 (A498 renal) of over 100 µM. It also gave a TGI (A498 renal) of over 100 µM, a GI50 (MOLT-4 leukemia) of 6.68 µM and a TGI (MOLT-4 leukemia) of over 100 µM. The GI50 (RXF 393 renal) was 31.3 µM, the TGI (RXF 393 renal) was over 100 µM and the GI50 (SNB-75 CNS) was 29.9 µM. The TGI (SNB-75 CNS) was over 100 µM, the GI50 (RPMI-8226 leukemia) was 17.4 µM and the TGI (RPMI-8226 leukemia) was over 100 µM. The GI50 (UACC-257 melanoma) was 28.9 µM, the TGI (UACC-257 melanoma) was over 100 µM and the GI50 (786-0 renal) was 47.3 µM. It also gave a TGI (786-0 renal) of over 100 µM, a GI50 (SK-OV-3 ovarian) of over 100 µM and a TGI (SK-OV-3 ovarian) of over 100 µM. The GI50 (NCI-H23 lung) was 38.9 µM, the TGI (NCI-H23 lung) was over 100 µM and the GI50 (UACC-62 melanoma) was 32 µM. It also gave a TGI (UACC-62 melanoma) of over 100 µM, a GI50 (SK-MEL-28 melanoma) of 22.4 µM and a TGI (SK-MEL-28 melanoma) of over 100 µM. It also gave a GI50 (LOX IMVI melanoma) of 7.69 µM, a TGI (LOX IMVI melanoma) of over 100 µM and a GI50 (MCF7 breast) of 19.8 µM. The TGI (MCF7 breast) was over 100 µM, the GI50 (PC-3 prostate) was 27.1 µM and the TGI (PC-3 prostate) was over 100 µM. The GI50 (CCRF-CEM leukemia) was 14.5 µM, the TGI (CCRF-CEM leukemia) was over 100 µM and the GI50 (NCI/ADR-RES ovarian) was 27.8 µM. For the same compound, the TGI (NCI/ADR-RES ovarian) was over 100 µM, the GI50 (HT29 colon) was 14.5 µM and the TGI (HT29 colon) was over 100 µM. It also gave a GI50 (DU-145 prostate) of 33.7 µM, a TGI (DU-145 prostate) of over 100 µM and a GI50 (OVCAR-4 ovarian) of 64.7 µM. The TGI (OVCAR-4 ovarian) was over 100 µM, the GI50 (NCI-H226 lung) was over 100 µM and the TGI (NCI-H226 lung) was over 100 µM. For the same compound, the GI50 (NCI-H460 lung) was 18.2 µM, the TGI (NCI-H460 lung) was over 100 µM and the GI50 (UO-31 renal) was 41.2 µM. For the same compound, the TGI (UO-31 renal) was over 100 µM, the GI50 (HS 578T breast) was over 100 µM and the TGI (HS 578T breast) was over 100 µM. The GI50 (EKVX NSCLC) was 68.3 µM, the TGI (EKVX NSCLC) was over 100 µM and the GI50 (NCI-H522 lung) was 34.8 µM. It also gave a TGI (NCI-H522 lung) of over 100 µM, a GI50 (HCT-116 colon) of 4.78 µM and a TGI (HCT-116 colon) of over 100 µM. It also gave a GI50 (BT-549 breast) of 34 µM, a TGI (BT-549 breast) of over 100 µM and a GI50 (SF-295 CNS) of 33.4 µM. It also gave a TGI (SF-295 CNS) of over 100 µM, a GI50 (KM12 colon) of 38.6 µM and a TGI (KM12 colon) of over 100 µM. The GI50 (COLO 205 colon) was 27.5 µM, the TGI (COLO 205 colon) was over 100 µM and the GI50 (HCC-2998 colon) was 39.2 µM. The TGI (HCC-2998 colon) was over 100 µM, the GI50 (TK-10 renal) was over 100 µM and the TGI (TK-10 renal) was over 100 µM. It also gave a GI50 (HCT-15 colon) of 3.25 µM, a TGI (HCT-15 colon) of over 100 µM and a GI50 (K-562 leukemia) of 21.3 µM. For the same compound, the TGI (K-562 leukemia) was over 100 µM, the GI50 (HL-60(TB) leukemia) was 37.9 µM and the TGI (HL-60(TB) leukemia) was over 100 µM. For the same compound, the GI50 (SF-539 CNS) was 15.1 µM, the TGI (SF-539 CNS) was over 100 µM and the GI50 (IGROV1 ovarian) was 7.84 µM. The TGI (IGROV1 ovarian) was over 100 µM, the GI50 (SW-620 colon) was 24.1 µM and the TGI (SW-620 colon) was over 100 µM. The GI50 (OVCAR-5 ovarian) was 35.2 µM, the TGI (OVCAR-5 ovarian) was over 100 µM and the GI50 (U251 CNS) was 11.2 µM. For the same compound, the TGI (U251 CNS) was over 100 µM, the GI50 (ACHN renal) was 50.5 µM and the TGI (ACHN renal) was over 100 µM. For the same compound, the GI50 (A549 NSCLC) was 45.2 µM, the TGI (A549 NSCLC) was over 100 µM and the GI50 (SK-MEL-5 melanoma) was 21.1 µM. It also gave a TGI (SK-MEL-5 melanoma) of over 100 µM, a GI50 (SNB-19 CNS) of 55.8 µM and a TGI (SNB-19 CNS) of over 100 µM. For the same compound, the GI50 (SF-268 CNS) was 13.4 µM, the TGI (SF-268 CNS) was over 100 µM and the GI50 (T-47D breast) was 37.5 µM. The TGI (T-47D breast) was over 100 µM, the GI50 (CAKI-1 renal) was 42.4 µM and the TGI (CAKI-1 renal) was over 100 µM. It also gave a GI50 (MDA-MB-435) of 41.4 µM, a TGI (MDA-MB-435) of over 100 µM and a GI50 (HOP-92 NSCLC) of 40.1 µM. The TGI (HOP-92 NSCLC) was over 100 µM, the GI50 (SR leukemia) was 22.9 µM and the TGI (SR leukemia) was over 100 µM. For the same compound, the GI50 (OVCAR-3 ovarian) was 53.7 µM, the TGI (OVCAR-3 ovarian) was over 100 µM and the GI50 (MALME-3M melanoma) was 75.8 µM. The TGI (MALME-3M melanoma) was over 100 µM, the GI50 (HOP-62 NSCLC) was 22 µM and the TGI (HOP-62 NSCLC) was over 100 µM.
